According to patent publication US20050143411A1, “Method for treating pulmonary disease” (Fujisawa Pharmaceutical Co., Ltd., priority 2003, published 2005):

System: cigarette smoke exposed guinea pigs
Test: cigarette smoke-induced COPD model in guinea pigs; specific airway resistance (sRaw) by double body plethysmograph
Format: in vivo, Hartley guinea pigs
Description: The effect of the FK506 Substance on the cigarette smoke-induced COPD model in guinea pigs was confirmed in the following manner.
1. Hartley guinea pigs were exposed to cigarette smoke in a nose-only inhalation chamber for 60 min/day, 5 days/week, for 4 weeks. Animals of the negative control group were exposed to the air.
2. FK506 Substance in the form of a solid dispersion composition, which was prepared in a similar manner to that of Example 1 (above), or its placebo was given orally, after suspension in water, every day about 1 hr before the cigarette smoke exposure.
3. Specific airway resistance (sRaw) was measured as a respiratory function parameter at 0, 1, 2, 3 and 4 weeks after the start of cigarette smoke inhalation by a double body plethysmograph method (Ref. 1).
Reference • Ref. 1; Pennock B E, Cox C P, Rogers R M, Cain W A, Wells J H. A Noninvasive technique for measurement of changes in specific airway resistance. J Appl Physiol. 1979 February; 46(2):399-406. Results

## C=CCC1C=C(C)CC(C)CC(OC)C2OC(O)(C(=O)C(=O)N3CCCCC3C(=O)OC(C(C)=CC3CCC(O)C(OC)C3)C(C)C(O)CC1=O)C(C)CC2OC (centres unmarked) [FK506, 17-allyl-1,14-dihydroxy-12-[2-(4-hydroxy-3-methoxycyclohexyl)-1-methylvinyl]-23,25-dimethoxy-13,19,21,27-tetramethyl-11,28-dioxa-4-azatricyclo[22.3.1.0^4,9]octacos-18-ene-2,3,10,16-tetraone]
FK506 0.32 mg/kg orally every day, 1 week of cigarette smoke exposure
  sRaw: 1.815 ± 0.073 cmH2O × mL/(mL/sec)
FK506 0.32 mg/kg orally every day, 2 weeks of cigarette smoke exposure
  sRaw: 2.089 ± 0.054 cmH2O × mL/(mL/sec)
FK506 0.32 mg/kg orally every day, 3 weeks of cigarette smoke exposure
  sRaw: 2.476 ± 0.112 cmH2O × mL/(mL/sec)
FK506 0.32 mg/kg orally every day, 4 weeks of cigarette smoke exposure
  sRaw: 2.636 ± 0.133 cmH2O × mL/(mL/sec)
FK506 0.32 mg/kg orally every day, pre (0 weeks), n=8
  sRaw: 1.892 ± 0.048 cmH2O × mL/(mL/sec)
FK506 1 mg/kg orally every day, 1 week of cigarette smoke exposure
  sRaw: 1.844 ± 0.123 cmH2O × mL/(mL/sec)
FK506 1 mg/kg orally every day, 2 weeks of cigarette smoke exposure
  sRaw: 2.012 ± 0.103 cmH2O × mL/(mL/sec)
FK506 1 mg/kg orally every day, 3 weeks of cigarette smoke exposure
  sRaw: 2.372 ± 0.167 cmH2O × mL/(mL/sec)
FK506 1 mg/kg orally every day, 4 weeks of cigarette smoke exposure
  sRaw: 2.763 ± 0.276 cmH2O × mL/(mL/sec)
FK506 1 mg/kg orally every day, pre (0 weeks), n=8
  sRaw: 1.899 ± 0.064 cmH2O × mL/(mL/sec)
Orally given, cigarette smoke exposed guinea pigs
  effect on decline of the respiratory function (increase of sRaw) caused by cigarette smoke: significantly suppressed the decline of the respiratory function
